This is an account of results in patent US9925189B2, “Heterocyclic receptor agonists for the treatment of diabetes and metabolic disorders” (CymaBay Therapeutics, Inc., priority 2006, dated 2018).

In the assay the target is T1, IC-GPCR2 (Homo sapiens, UniProt Q8TDV5, S309L).
T1 construct: expressed in transfected cells
T1 sequence (Q8TDV5 1-335 S309L): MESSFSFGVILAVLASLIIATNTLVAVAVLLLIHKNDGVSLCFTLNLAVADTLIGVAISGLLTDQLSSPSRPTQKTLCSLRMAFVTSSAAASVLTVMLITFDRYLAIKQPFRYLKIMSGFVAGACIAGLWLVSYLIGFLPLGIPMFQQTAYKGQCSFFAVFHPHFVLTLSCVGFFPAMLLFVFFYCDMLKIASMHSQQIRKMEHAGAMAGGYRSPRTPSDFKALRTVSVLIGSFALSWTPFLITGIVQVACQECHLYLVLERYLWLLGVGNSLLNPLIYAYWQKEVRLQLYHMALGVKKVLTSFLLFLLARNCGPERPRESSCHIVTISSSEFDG
The assay can be described thus: Stimulation of cAMP in CHO cells stably expressing IC-GPCR2 (HTRF cAMP assay). The settings on record: 0.5 h, 30 minutes, IC-GPCR2 stably expressing CHO cells, read-out: Activity at 10 uM (% change in FRET signal from DMSO control). The format is cell-based. Summed up:
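CHO cells stably expressing IC-GPCR2, plated at 17500 cells/well, treated next day for 30 min in Ham's F12 with compounds at 6–8 concentrations from 0.00003 to 10 μM; parental CHO cells also screened. Intracellular cAMP read by HTRF competitive immunoassay (665/620 nm ratio). Activity given as % FRET change from DMSO control.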
(TR-FRET usually uses a lanthanide donor and a delayed reading to cut background.)
On to `Brc1cnc(N2CCC(c3nc(COc4ccc(-n5cnnn5)cc4)cs3)CC2)nc1` [Example 54, 5-Bromo-2-{4-[4-(4-tetrazol-1-yl-phenoxymethyl)-thiazol-2-yl]-piperidin-1-yl}-pyrimidine], for which the activation at 10 µM amounted to 58%.
For `CCc1cnc(N2CC[C@@H](c3nc(COc4ccc(-n5cnnn5)cc4F)cs3)[C@@H](C)C2)nc1` (stereo in doubt) [Example 200, 5-Ethyl-2-{4-[4-(2-fluoro-4-tetrazol-1-yl-phenoxymethyl)-thiazol-2-yl]-3-methyl-piperidin-1-yl}-pyrimidine] the value was 82%; for `CC(C)(C)OC(=O)Nc1ccc(OCc2csc(C3CCN(C(=O)OC(C)(C)C)CC3)n2)cc1` [Example 130, 4-[4-(4-tert-Butoxycarbonylamino-phenoxymethyl)-thiazol-2-yl]-piperidine-1-carboxylic acid tert-butyl ester], 53%; for `C[C@H]1CN(c2ncc(C(F)(F)F)cn2)CC[C@H]1c1nc(COc2ccc(-n3cnnn3)cc2F)cs1` (stereo in doubt) [Example 202, 2-{4-[4-(2-Fluoro-4-tetrazol-1-yl-phenoxymethyl)-thiazol-2-yl]-3-methyl-piperidin-1-yl}-5-trifluoromethyl-pyrimidine], 83%.
Take `CCc1cnc(N2CCC(c3nc(COc4ccc(-n5cccc5)cc4)cs3)CC2)nc1` [Example 160, 5-Ethyl-2-{4-[4-(4-pyrrol-1-yl-phenoxymethyl)-thiazol-2-yl]-piperidin-1-yl}-pyrimidine]: the activation at 10 µM came to 77%.
For `CC(C)(C)OC(=O)N1CCC(c2nc(COCc3ccc(S(C)(=O)=O)cc3)cs2)CC1` [Example 106, 4-[4-(4-Methanesulfonyl-benzyloxymethyl)-thiazol-2-yl]-piperidine-1-carboxylic acid tert-butyl ester] the value was 71%.
In the case of `CCc1cnc(N2CCC(c3nc(COc4ccc5sc(=O)oc5c4)cs3)CC2)nc1` [Example 15, 6-{2-[1-(5-Ethyl-pyrimidin-2-yl)-piperidin-4-yl]-thiazol-4-ylmethoxy}-benzo[1,3]oxathiol-2-one], the activation at 10 µM was 55%.
For `NC(=O)N1CCC(c2nc(COc3ccc(-n4cnnn4)cc3)cs2)CC1` [Example 99, 4-[4-(4-Tetrazol-1-yl-phenoxymethyl)-thiazol-2-yl]-piperidine-1-carboxylic acid amide] the value was 67%.
Turning to `CCc1cnc(N2CCC(c3nc(CNc4ccc(S(C)(=O)=O)cc4F)cs3)CC2)nc1` [Example 141, {2-[1-(5-Ethyl-pyrimidin-2-yl)-piperidin-4-yl]-thiazol-4-ylmethyl}-(2-fluoro-4-methanesulfonyl-phenyl)-amine], the activation at 10 µM stood at 64%.
`CCc1cnc(N2CCC(c3nc(COc4ccc(NS(C)(=O)=O)cc4)cs3)CC2)nc1` [Example 117, N-(4-{2-[1-(5-Ethyl-pyrimidin-2-yl)-piperidin-4-yl]-thiazol-4-ylmethoxy}-phenyl)-methanesulfonamide]: the activation at 10 µM came out at 65%.
As to `CCN(CC)C(=O)N1CCC(c2nc(COc3ccc(-n4cnnn4)cc3)cs2)CC1` [Example 45, 4-[4-(4-Tetrazol-1-yl-phenoxymethyl)-thiazol-2-yl]-piperidine-1-carboxylic acid diethylamide], the activation at 10 µM came to 84%.
For `CC(C)(C)OC(=O)N1CCC(c2nc(COc3ccc(S(C)(=O)=O)cc3)no2)CC1` [Example 81, 4-[3-(4-Methanesulfonyl-phenoxymethyl)-[1,2,4]oxadiazol-5-yl]-piperidine-1-carboxylic acid tert-butyl ester] the value was 59%; for `COC(=O)C(=O)N1CCC(c2nc(COc3ccc(-n4cnnn4)cc3)cs2)CC1` [Example 42, Oxo-{4-[4-(4-tetrazol-1-yl-phenoxymethyl)-thiazol-2-yl]-piperidin-1-yl}-acetic acid methyl ester], 67%.
As to `CCc1cnc(N2CCC(c3nc(COc4ccc(-n5cnnn5)c(Cl)c4)cs3)CC2)nc1` [Example 115, 2-{4-[4-(3-Chloro-4-tetrazol-1-yl-phenoxymethyl)-thiazol-2-yl]-piperidin-1-yl}-5-ethyl-pyrimidine], the activation at 10 µM is 67%.
As for `CC(C)(C)OC(=O)N1CCC(c2nc(COc3ccc(N4CCOCC4)cc3)cs2)CC1` [Example 133, 4-[4-(4-Morpholin-4-yl-phenoxymethyl)-thiazol-2-yl]-piperidine-1-carboxylic acid tert-butyl ester], the activation at 10 µM came out at 61%.
For the compound `CCc1cnc(N2CCC(c3nc(COc4ccc(-n5cnnn5)cc4)co3)CC2)nc1` [Example 169, 5-Ethyl-2-{4-[4-(4-tetrazol-1-yl-phenoxymethyl)-oxazol-2-yl]-piperidin-1-yl}-pyrimidine], the activation at 10 µM is 85%.
For `Cc1cnc(N2CCC(c3nc(COc4ccc(-n5cnnn5)cc4)cs3)CC2)nc1Cl` [Example 57, 4-Chloro-5-methyl-2-{4-[4-(4-tetrazol-1-yl-phenoxymethyl)-thiazol-2-yl]-piperidin-1-yl}-pyrimidine] the value was 7%; for `Cc1ccc(N2CCC(c3nc(COc4ccc(-n5cnnn5)cc4)cs3)CC2)nc1` [Example 69, 5′-Methyl-4-[4-(4-tetrazol-1-yl-phenoxymethyl)-thiazol-2-yl]-3,4,5,6-tetrahydro-2H-[1,2′]bipyridinyl], 74%; for `Nc1cnc(N2CCC(c3nc(COc4ccc(-n5cnnn5)cc4)cs3)CC2)nc1` [Example 107, 2-{4-[4-(4-Tetrazol-1-yl-phenoxymethyl)-thiazol-2-yl]-piperidin-1-yl}-pyrimidin-5-ylamine], 53%.
In the case of `CCc1cnc(N2CCC(c3nc(COc4ccc(S(C)(=O)=O)cc4F)cs3)CC2)nc1` [Example 76, 5-Ethyl-2-{4-[4-(2-fluoro-4-methanesulfonyl-phenoxymethyl)-thiazol-2-yl]-piperidin-1-yl}-pyrimidine] it was 74%.
`CC(C)(C)OC(=O)N1CCC(c2nc(COc3c(F)cc(S(C)(=O)=O)cc3F)cs2)CC1` [Example 132, 4-[4-(2,6-Difluoro-4-methanesulfonyl-phenoxymethyl)-thiazol-2-yl]-piperidine-1-carboxylic acid tert-butyl ester]: the activation at 10 µM was found to be 70%.
In the case of `Clc1cnc(N2CCC(c3nc(COc4ccc(-n5cnnn5)nc4)cs3)CC2)nc1` [Example 184, 5-Chloro-2-{4-[4-(6-tetrazol-1-yl-pyridin-3-yloxymethyl)-thiazol-2-yl]-piperidin-1-yl}-pyrimidine] it was 69%; in that of `CCOC(=O)CC(=O)N1CCC(c2nc(COc3ccc(-n4cnnn4)cc3)cs2)CC1` [Example 43, 3-Oxo-3-{4-[4-(4-tetrazol-1-yl-phenoxymethyl)-thiazol-2-yl]-piperidin-1-yl}-propionic acid ethyl ester], 47%.
With `CC(C)c1noc(N2CCC(c3nc(COc4ccc(-n5cnnn5)cc4)cs3)CC2)n1` [Example 95, 1-(3-Isopropyl-[1,2,4]oxadiazol-5-yl)-4-[4-(4-tetrazol-1-yl-phenoxymethyl)-thiazol-2-yl]-piperidine], the activation at 10 µM turned out to be 63%.
In the case of `CC(C)(C)OC(=O)N1CCC(c2nc(COc3ccc(-n4ccnn4)cc3)cs2)CC1` [Example 128, 4-[4-(4-[1,2,3]Triazol-1-yl-phenoxymethyl)-thiazol-2-yl]-piperidine-1-carboxylic acid tert-butyl ester] it was 57%; in that of `CS(=O)(=O)c1ccc(OCc2csc(C3CCN(C(=O)OCc4ccccc4)CC3)n2)cc1` [Example 23, 4-[4-(4-Methanesulfonyl-phenoxymethyl)-thiazol-2-yl]-piperidine-1-carboxylic acid benzyl ester], 37%.
For `CC(C)(C)OC(=O)N1CCCC(c2nc(COc3ccc(-n4cnnn4)cc3)cs2)C1` (stereo not drawn) [Example 104, 3-[4-(4-Tetrazol-1-yl-phenoxymethyl)-thiazol-2-yl]-piperidine-1-carboxylic acid tert-butyl ester], the activation at 10 µM amounted to 76%.
As to `CS(=O)(=O)c1ccc(OCc2csc(C3CCN(c4ncccn4)CC3)n2)cc1` [Example 47, 2-{4-[4-(4-Methanesulfonyl-phenoxymethyl)-thiazol-2-yl]-piperidin-1-yl}-pyrimidine], the activation at 10 µM is 51%.
In the case of `CC(C)(C)COC(=O)N1CCC(c2nc(COc3ccc(-n4cnnn4)cc3)cs2)CC1` [Example 34, 4-[4-(4-Tetrazol-1-yl-phenoxymethyl)-thiazol-2-yl]-piperidine-1-carboxylic acid 2,2-dimethyl-propyl ester] it was 70%.
`CC(C)c1cnc(N2CCC(c3nc(COc4ccc(-n5cnnn5)cc4F)cs3)CC2)nc1` [Example 162, 2-{4-[4-(2-Fluoro-4-tetrazol-1-yl-phenoxymethyl)-thiazol-2-yl]-piperidin-1-yl}-5-isopropyl-pyrimidine]: the activation at 10 µM came out at 79%.
